Test results from paper PMC9304066, “H2S biogenesis by cystathionine beta-synthase: mechanism of inhibition by aminooxyacetic acid and unexpected role of serine” (Cellular and Molecular Life Sciences: CMLS, 2022).

Key:
[1] = tested on: human recombinant CSE; parameters: method as in PMID 23488457; conditions: in vitro; cited from earlier work
[2] = biological target: T1, tScCBS (Saccharomyces cerevisiae, UniProt P32582); assay: CBL-LDH coupled-coupled CBS assay, tScCBS; type: biochemical
T1 construct: 6xHis (C); made in house
T1 sequence (P32582 1-345): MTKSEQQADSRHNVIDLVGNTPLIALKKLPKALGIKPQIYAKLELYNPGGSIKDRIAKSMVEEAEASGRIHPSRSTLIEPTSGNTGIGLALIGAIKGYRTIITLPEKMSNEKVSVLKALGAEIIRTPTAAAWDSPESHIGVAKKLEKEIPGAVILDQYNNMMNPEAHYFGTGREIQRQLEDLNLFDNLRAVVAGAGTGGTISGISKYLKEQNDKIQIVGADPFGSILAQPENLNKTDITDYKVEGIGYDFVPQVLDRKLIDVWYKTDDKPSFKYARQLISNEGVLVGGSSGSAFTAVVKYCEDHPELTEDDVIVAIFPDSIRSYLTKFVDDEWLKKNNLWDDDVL
Description: CBS coupled-coupled assay. CBS canonical activity utilizing Ser and Hcy was determined using cystathionine beta-lyase (CBL) and lactate-dehydrogenase (LDH) coupled-coupled assay as described previously with a few modifications. Native L-LDH from rabbit muscle was purchased from Sigma (catalog no. L2500) and recombinant CBL was purchased from Creative Enzymes (catalog no. NATE-1146). In a final volume of 150 µL, the reaction mixture contained 50 mM Tris–HCl pH 8.9, 20 µM PLP, 500 µM NADH, 1.3 µM LDH, 0.1 µM CBL, 0–20 mM Ser (or 0–50 mM Cys) and 500 ng of tScCBS or HsCBS. Assays with HsCBS were carried out in the absence or presence of 500 µM CBS allosteric activator S-adenosylmethionine (SAM). The reaction was triggered by the addition of 2 mM Hcy and the oxidation of NADH to NAD^+ was followed by monitoring the decrease in absorbance at 340 nm over time (ε340 = 6220 M^−1.cm^−1). […] All measurements were performed in triplicates using Tecan Infinite 200 PRO microplate reader. Kinetic data were analyzed using GraphPad Prism software.

[3] = tested on: HEK293 cells; assay: Cell proliferation (BrdU); type: cell-based, human; conditions: Ser concentrations above 3 mM, 'up to'
Description: Cell culture. The human embryonic kidney cell line HEK293 (ATCC CRL-1573) was cultured in Dulbecco’s Modified Eagle Medium (DMEM) containing 4.5 g/L glucose. The culture medium was supplemented with 10% (v/v) heat-inactivated fetal bovine serum, 2 mM Glutamax, non-essential amino acids, 100 U/ml penicillin and 100 μg/ml streptomycin. Cells were grown in a humidified incubator at 37 °C and 5% CO2 atmosphere. Cell viability and proliferation were assessed using MTT and BrdU assay, respectively, essentially as described previously.

[4] = biological target: T1, tScCBS; assay: Fluorescence emission titration of tScCBS (PLP excitation at 410 nm); type: binding; conditions: tScCBS 1 mg/mL, pH 8.5; decrease in emission at 520 nm, excitation 410 nm; read-out: Dissociation constant Kd (fluorescence)
Description: CBS enzymes. Recombinant truncated Saccharomyces cerevisiae CBS lacking the C-terminal regulatory domain (residues 346–507) and carrying the C-terminal 6xHis tag (tScCBS) was prepared as described previously. Engineered recombinant Homo sapiens CBS lacking a loop protruding from the central β-strand of the CBS2 domain corresponding to the residues 516–525 (HsCBS; described in detail in [21]) was purchased from GenScript.
UV − Vis and fluorescence spectroscopy. Absorption spectra were collected on a Tecan Infinite M200 Pro spectrophotometer in a buffer containing 50 mM Tris–HCl pH 8.5, 20 mM NaCl and 0.5 mM tris(2-carboxyethyl)phosphine (TCEP). All the spectra were carried out with a protein concentration of 1 mg/mL with a 1 cm path-length quartz cuvette in a total volume of 150 µL. tScCBS was titrated directly in a cuvette by successive additions of different concentrations of AOAA, Ser and Cys, respectively, and spectra were recorded between 240 and 600 nm after an incubation time of 3 min at RT. Fluorescence emission spectra were collected under the same conditions upon PLP excitation at 410 nm. Blank spectra were subtracted from sample spectra.

| SMILES | Potency inhibiting human recombinant CSE relative to CBS [1] | Reduction of activity catalyzing condensation of Cys and Hcy yielding H2S ([2]; AOAA-inhibited tScCBS (200 µM AOAA)) [%] | Effect on condensation of Ser and Hcy (canonical reaction) ([2]; tScCBS inhibited by 200 µM AOAA, 5 mM Ser + 2 mM Hcy) | Increase of cellular proliferation [3] | Kd [4] [µM] |
| --- | --- | --- | --- | --- | --- |
| NOCC(=O)O [AOAA, aminooxyacetic acid] | ~ 8 times | 85 | not impaired |  |  |
| N[C@@H](CO)C(=O)O [Ser, serine] |  |  |  | ~ 18% | 39.5 ± 8.26 |
